Patent US12233041B2, “Disulfonate stilbenes for use in the treatment of proliferative diseases” (UNIVERSITÉ DE NANTES, priority 2018, dated 2025)
“Also recorded” adds a separate entry of the source. Where two headings read alike, the source gives them in different places.

Tests used:
HsRad51 = target: T1, HsRad51 (Homo sapiens, UniProt Q06609); experiment: RAD51 oligomerization by SDS-PAGE gel after crosslink; assay type: biochemical; details: 2.5 μM HsRad51, disuccinimidyl suberate crosslink, SDS-PAGE/Western blot; FIG. 1
T1 sequence (Q06609 1-339): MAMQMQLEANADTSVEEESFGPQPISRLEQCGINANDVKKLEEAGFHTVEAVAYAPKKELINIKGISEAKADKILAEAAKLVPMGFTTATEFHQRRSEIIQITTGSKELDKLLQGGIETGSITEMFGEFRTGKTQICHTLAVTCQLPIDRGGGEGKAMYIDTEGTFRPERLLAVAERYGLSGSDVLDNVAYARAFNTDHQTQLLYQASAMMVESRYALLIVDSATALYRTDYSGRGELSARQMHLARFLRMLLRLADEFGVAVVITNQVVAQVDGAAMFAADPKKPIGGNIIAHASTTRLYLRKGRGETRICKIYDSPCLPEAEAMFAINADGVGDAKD
Protocol: The reaction was performed at room temperature. 2.5 μm HsRad51 was incubated with the indicated concentrations of tested compounds for 10 min in a buffer containing 20 mm sodium phosphate, 50 mm NaCl, 1 mm MgCl 2, and 1 mm ATP. The cross-linking reactions were initiated by the addition of disuccinimidyl suberate (50 μm) and allowed to proceed for 30 min. Reactions were quenched by the addition of Tris-HCl (pH 7.5, final concentration: 50 mm) followed by subsequent incubations for 15 min. The products were then separated by 12% SDS polyacrylamide gel electrophoresis and detected by Western blot with mouse monoclonal anti-Rad51 antibody (NeoMarkers) and anti-mouse Alexa-Fluor 700-conjugated secondary antibody (Molecular Probes, Eugene, OR). The cross-linked dimer was quantified by an Odyssey Infrared Imaging System scanner (Li-Cor Biosciences) (Martinez, S. F. et al., “Targeting human Rad51 by specific DNA aptamers induces inhibition of homologous recombination”, Biochimie, December 2010, Vol. 92, No. 12, pp. 1832-1838).
The SDS-PAGE electrophoresis after crosslink maintains and immobilizes the RAD51 protein complexes and thus allows visualization of the degree of oligomerization (polymer formation) of the RAD51 protein. The effect of RAD51 protein inhibitors B-1, B-2, B-3, DIDS and X-4 on this key step of RAD51 protein recombinase activity has thus been evaluated. The results are presented on FIG. 1.

DU-145 cell line = experiment: Clonogenicity test, sensitizing effect with an antineoplastic drug; assay type: cell-based; details: Homo sapiens, DU-145, B-2 20 μM
Protocol: Clonogenicity tests are carried out against several model cell lines derived from cancer including prostate cancer (DU-145). Cells are exposed to an anti-cancer agent targeting DNA (cisplatin or camptothecin). Damaged cells are counted and seeded in the presence or in the absence of B-2 in triplicate culture plates. After about two weeks of incubation at 37° C. the number of clones formed is counted. Each cell capable of repairing its lesions will then form a clone. After counting, the percentage of survival will be calculated relative to the control condition for which it is considered that there is 100% survival.
The main interest of RAD51 protein inhibitors is the sensitization of chemo-resistant or radio-resistant cancerous cell lines. Clonogenicity evaluation was carried out on the DU-145 cell line treated with cisplatin treatment in the presence or in the absence of disulfonate stilbene B-2 (RAD51 protein inhibitor).
DU-145 cell line was treated with camptothecin in the presence or in the absence of disulfonate stilbene B-2 (RAD51 protein inhibitor) and the clonogenic cell survival was determined.

Rad51 = target: T2, Rad51 (Homo sapiens, UniProt Q06609); experiment: DNA invasion by D-loop assay (strand exchange); assay type: biochemical; details: 0.5 μM Rad51, 1 μM 100-ssDNA, 37° C.; read-out: IC50 (RAD51 protein inhibition, D-loop formation)
T2 sequence (Q06609 1-339): T1 sequence (Q06609 1-339)
Protocol: Labeled 100-ssDNA** (1 μM) was incubated with 0.5 μM Rad51 in presence or absence of the indicated amounts of the corresponding molecule in 10 μL of standard reaction buffer containing 20 mM Tris-HCl (pH 8), 1 mM ATP, 1 mM DTT, 1 mM CaCl2) at 37° C. for 20 min. The reaction was initiated by adding supercoiled pPB4.3 DNA (200 μM in bp). After incubation of 30 min at 37° C., the reactions were stopped and deproteinized by a stop solution (10 mM Tris-HCl pH 8, 10 mM MgCl2, 1% SDS, and 1 mg/mL proteinase K. The reaction mixtures were further incubated for 15 min at 37° C. After adding 5-fold loading dye (0.05% bromophenol blue, 8% glycerol, 1 mM EDTA), the reaction products were separated by electrophoresis on 1% agarose gel. The electrophoresis was carried out in 0.5×TAE buffer (20 mM Tris, 10 mM acetic acid and 1 mM EDTA) at 100 V for 2 h. The labeled products (100-ssDNA** and D-loop) were visualized and quantified by the detection of the IRD-700 dye with the 700 nm infrared fluorescent detection channel of an Odyssey Infrared Imager (LI-COR) (Normand, A. et al., Biochemical Pharmacology, October 2014, Vol. 91, No. 3, pp. 293-300).
The “D-loop” in vitro test allows the quantification of the formation of the strand exchange structure (D-loop) and thus the determination of the inhibitory power of a molecule during the strand exchange step of the recombinase mechanism. IC50 measuring the RAD51 protein inhibition in presence of compounds A-1 to A-5, […] and DIDS are then calculated.

IC50 (Rad51): 5 µM
SMILES: N#Cc1ccc(/C=C/c2ccc(C#N)cc2S(=O)(=O)[O-])c(S(=O)(=O)[O-])c1.[Na+].[Na+] [B-2, Sodium (E)-6,6′-(ethene-1,2-diyl)bis(3-cyanobenzenesulfonate)]
oligomerization state of RAD51 protein (HsRad51): significant reduction; also recorded: very strongly diminished | percent decrease of IC50 at 20 µM (DU-145 cell line; read-out: decrease of growth inhibition IC50 for camptothecin in presence of B-2): ~90% | percent decrease of IC50 at 20 µM (DU-145 cell line; read-out: decrease of growth inhibition IC50 for cisplatin in presence of B-2): ~40%
